# “Also recorded” adds a separate entry of the source. Where a SMILES comes first, the peptide text is derived from it.
# Columns and labels:
# HUVECs [1] = experiment: Confocal microscopy of FITC-RLYE binding to HUVECs; set-up: species or system human
# Method: HUVECs were incubated on a cover glass coated with 2% gelatin, and then incubated with FITC-RLYE (SEQ ID NO: 2) (100 ng/ml) after being treated with VEGF-A (10 ng/ml) for 30 minutes or not treated. The cells were fixed in 3.7% formaldehyde for 30 minutes, treated with 0.2% TritonX-100-containing PBS, and reacted with a 3% goat serum and 0.05% Tween-20-containing PBS blocking solution. The cells were reacted with a PECAM-1 antibody at room temperature for 2 hours, washed with PBS, and reacted with a TRITC-conjugated secondary antibody at room temperature for 90 minutes. Samples were observed under a confocal microscope.
# p38 = experiment: Western blot, p38 activation in VEGF-A-stimulated HUVECs; type: cell-based, human; details: HUVECs stimulated with VEGF-A
# Method: (§1) Cells were lyzed in RIPA buffer, and 50 μg of proteins were isolated by SDS-PAGE and then transferred to a PVDF membrane. The membrane was reacted with an antibody with respect to a target protein for 2 hours. The membrane was washed twice and reacted with a horseradish peroxidase-conjugated antibody, and then an amount of the target proteins was assessed with an enhanced chemiluminescence system.
# FAK = experiment: Western blot, FAK phosphorylation in VEGF-A-stimulated HUVECs; type: cell-based, human; details: HUVECs stimulated with VEGF-A
# Method: as §1
# HUVECs [2] = experiment: HUVEC migration, transwell (Boyden chamber) assay; type: cell-based, human
# Method: HUVEC migration was analyzed using a transwell plate equipped with a 6.5-mm-diameter polycarbonate filter (8-μm pore size). A lower surface of the filter was coated with 10 μg of gelatin. […] Following incubation with various concentrations of tetrapeptides at room temperature for 30 minutes, HUVECs (1×10^6 cells/100 μl) were placed in upper wells. The cells were incubated at 37° C. in a constant temperature and humidity chamber for 4 hours. The migrated cells were stained with hematoxylin and eosin, and quantified under an optical microscope.
# [3] = tested on: VEGF-A-induced angiogenesis; experiment: Matrigel implantation, intravital fluorescence microscopy; type: in vivo, C57BL/6J mouse; details: mouse, RLYE 1.5 nM, VEGF 100 ng
# Method: Formation of new blood vessels was examined by intravital fluorescence microscopy. A C57BL/6J mouse was anesthetized, and then a titanium-made imaging window was installed between the skin and an abdominal wall by surgery. 100 μl of Matrigel containing RLYE (SEQ ID NO: 2) (1.5 nM) alone or in combination with VEGF (100 ng) was injected into an inner space between the skin and abdominal walls of the window. Four days later, 50 μl of dextran (MW 250 kDa) labeled with 25 mg/ml of FITC was injected into the caudal vein, and then formation of new blood vessels was observed under a Zeiss Axiovert 200M microscope (Carl Zeiss). A vascular length density of the FITC-labeled dextran-perfuse blood vessels per observation area (mm/mm2) was calculated.
# aortic ring = experiment: Aortic ring sprouting assay (ex vivo); set-up: species or system Sprague-Dawley rat; details: RLYE 0.3 nM, VEGF 20 ng/ml
# Method: An aortic ring sprouting assay was performed by a method modified based on previous research. A 1-mm-thick aortic ring prepared from a Sprague-Dawley rat (7-week-old male) was placed in a 96-well plate coated with 120 μl of Matrigel, sealed with 50 μl of Matrigel, and incubated with RLYE (SEQ ID NO: 2) (0.3 nM) or VEGF (20 ng/ml) in a total of 200 μl of a serum-free medium. Blood vessels newly formed at day 6 were fixed, microvascular formation was observed under a phase-contrast microscope, and angiogenesis was quantified with Image Jsoftware available at NIH website, rsb.info.nih.gov/ij.
# [4] = tested on: HCT116 human colorectal tumor cells; experiment: Human colorectal tumor (HCT116) xenograft model; type: in vivo, nude mouse
# Method: 100 μl each of 2×10^6 B16F1 mouse melanoma cells and 1×10^7 HCT116 human colorectal tumor cells were subcutaneously injected into the left side of a C57BL/6J mouse and a nude mouse. After a tumor volume reached at least 50 to 70 mm3 (taking about 7 days), saline or RLYE (SEQ ID NO: 2) (0.5 or 1.0 mg/kg) was peritoneally injected daily into the mice. A tumor size was two-dimensionally measured with calipers. A tumor volume (mm3) was calculated by a formula of […]. Following homogenization of tumor tissue with PBS and centrifugation (at 12,000×g for 5 min), a hemoglobin-containing supernatant was extracted to be used in analysis with Drabkin's reagent (Sigma). A hemoglobin level was measured by a cyanmethemoglobin method, and the amount of hemoglobin per gram of the tumor was calculated.
# Tumor tissue was fixed in 10% formalin, and inserted into paraffin. A slide was prepared from a tissue section, embedded in xylene to remove the paraffin, and rehydrated with 100%, 95%, 80% and 70% ethanol (EtOH) in s stepwise manner. Afterward, the slide was washed with deionized water multiple times at room temperature. To inhibit an intracellular peroxidase activity, the section was reacted in 0.3% hydrogen peroxide-containing methanol for 15 minutes, washed with PBS three times, reacted in 3% goat serum-containing PBS at room temperature for 2 hours, and reacted with a PECAM-1 antibody overnight at 4° C. The tissue section slide was washed with PBS three times, and reacted with a TRITC-conjugated secondary antibody for 1 hour. In addition, the tumor tissue section was also reacted with FITC-isolectin B4 ([…]; Vector Laboratories) for 1 hour. The tissue section was washed with PBS three times, and treated with a Permount solution to make a slide, followed by observation of tumor blood vessels under a fluorescence microscope.
# Src = experiment: Western blot, Src phosphorylation in VEGF-A-stimulated HUVECs; type: cell-based, human; details: HUVECs stimulated with VEGF-A
# Method: as §1
# VEGFR-2 = VEGFR-2 (Homo sapiens, UniProt P35968); experiment: Western blot, VEGFR-2 phosphorylation in VEGF-A-treated HUVECs; type: cell-based; set-up: endogenous in cells; host or cells: HUVEC
# VEGFR-2, sequence (P35968 20-1356): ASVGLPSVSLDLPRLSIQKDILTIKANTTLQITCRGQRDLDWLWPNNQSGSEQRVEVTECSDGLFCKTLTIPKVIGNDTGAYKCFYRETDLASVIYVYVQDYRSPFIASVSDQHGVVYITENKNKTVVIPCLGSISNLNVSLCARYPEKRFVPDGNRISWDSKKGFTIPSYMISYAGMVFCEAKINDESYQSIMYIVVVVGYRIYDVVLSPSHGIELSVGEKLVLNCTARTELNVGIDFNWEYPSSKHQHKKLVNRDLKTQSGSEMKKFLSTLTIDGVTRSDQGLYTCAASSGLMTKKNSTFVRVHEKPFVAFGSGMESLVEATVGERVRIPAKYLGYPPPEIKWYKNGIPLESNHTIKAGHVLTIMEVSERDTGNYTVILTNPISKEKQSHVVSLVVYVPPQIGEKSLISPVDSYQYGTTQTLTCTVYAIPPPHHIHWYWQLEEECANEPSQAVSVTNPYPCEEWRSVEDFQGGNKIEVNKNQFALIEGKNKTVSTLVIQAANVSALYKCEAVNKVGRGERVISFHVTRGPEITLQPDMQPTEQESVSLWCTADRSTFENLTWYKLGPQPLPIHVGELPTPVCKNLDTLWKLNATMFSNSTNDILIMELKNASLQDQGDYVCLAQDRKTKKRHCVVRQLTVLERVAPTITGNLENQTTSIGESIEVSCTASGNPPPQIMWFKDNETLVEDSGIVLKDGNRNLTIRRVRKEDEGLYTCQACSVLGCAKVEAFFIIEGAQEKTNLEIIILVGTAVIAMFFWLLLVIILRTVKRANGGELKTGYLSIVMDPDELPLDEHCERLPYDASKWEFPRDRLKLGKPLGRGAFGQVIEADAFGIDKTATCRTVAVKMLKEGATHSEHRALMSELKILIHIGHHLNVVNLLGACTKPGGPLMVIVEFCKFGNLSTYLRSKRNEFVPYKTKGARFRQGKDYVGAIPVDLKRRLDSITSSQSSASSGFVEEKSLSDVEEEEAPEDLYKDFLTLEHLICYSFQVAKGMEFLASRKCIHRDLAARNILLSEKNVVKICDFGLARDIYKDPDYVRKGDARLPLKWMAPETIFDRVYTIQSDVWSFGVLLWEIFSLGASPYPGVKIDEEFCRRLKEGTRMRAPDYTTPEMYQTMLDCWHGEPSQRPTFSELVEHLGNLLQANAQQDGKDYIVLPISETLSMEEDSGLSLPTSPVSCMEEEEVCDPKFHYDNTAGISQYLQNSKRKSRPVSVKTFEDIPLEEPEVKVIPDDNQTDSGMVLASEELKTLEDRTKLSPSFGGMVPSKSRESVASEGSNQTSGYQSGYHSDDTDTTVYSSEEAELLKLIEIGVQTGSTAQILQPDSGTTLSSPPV
# Method: as §1
# [5] = 0.5 or 1.0 mg/kg per day peritoneally
smiles,measurement,setting,value
CC(C)C[C@H](NC(=O)[C@@H](N)CCCNC(=N)N)C(=O)N[C@@H](Cc1ccc(O)cc1)C(=O)N[C@@H](CCC(=O)O)C(=O)O [RLYE] (H-RLYE-OH; N-terminus and C-terminus assumed),binding to HUVEC surface (confocal microscope),HUVECs [1]; pretreatment of VEGF-A,effectively blocked
same,binding to HUVEC surface (confocal microscope),HUVECs [1]; without VEGF-A pretreatment,binds to a HUVEC surface
same,activation of p38,p38,inhibited
same,phosphorylation of FAK,FAK,inhibited
same,EGF-induced migration of HUVECs,HUVECs [2]; EGF stimulated,does not affect
same,P1GF-induced HUVEC migration,HUVECs [2]; P1GF (ligand of VEGFR-1),does not inhibit
same,inhibition of VEGF-induced HUVEC migration,HUVECs [2]; VEGF / VEGF-A stimulated,effectively inhibited; also recorded: certainly inhibits; also recorded: concentration-dependently inhibited
same,VEGF-B-induced HUVEC migration,HUVECs [2]; VEGF-B (ligand of VEGFR-1),does not inhibit
same,bFGF-induced migration of HUVECs,HUVECs [2]; bFGF stimulated,did not inhibit
same,VEGF-A-induced angiogenesis in Matrigel implant,[3],effectively inhibited
same,VEGF-A-induced angiogenesis at the edge of the aortic ring,aortic ring,significantly inhibited
same,invasion of HUVECs into tumor tissue (isolectin B4 / PECAM-1 immunostaining),[4],decreased depending on the amount of treated RLYE
same,tumor growth,[4]; [5],concentration-dependently inhibited
same,tumor size,[4]; [5],significantly reduced
same,decrease in hemoglobin content in tumor tissue,[4]; compared with a control,41%
same,phosphorylation of Src,Src,inhibited
same,phosphorylation of VEGFR-2,VEGFR-2,inhibits

# — patent publication US9969771B2, “Tetrapeptide having effect of inhibiting VEGF-induced angiogenesis and use thereof” (AVIXGEN INC., priority 2015, dated 2018)
